Reference: patent US10716805B2, “Formulation for release of nitric oxide” (Glanotech Limited, priority 2018, dated 2020)
“Also recorded” adds a separate entry of the source.

Legend:
[1] = Formation and stability of nitrosothiol after mixing of phases A and B (visible UV absorption spectrum); assay type: physicochemical; details: at room temperature
Description: The reaction mixture is prepared by dissolving the following amounts of reagents in 5 mL propylene glycol: fumaric acid 10 mM; ascorbic acid between 30 and 50 mM (PHASE A).
A solid phase, consisting of a mixture of pantetheine, sodium nitrite and powdered copper sulfate, is added rapidly to the solution obtained, in a quantity such that their concentration in the final reaction volume amounts to: pantetheine 10 mM, sodium nitrite 15 mM; copper sulfate 1 mM (PHASE B). Mixing is done at room temperature (25° C.) (Fukuto et al., 2013).
The S-nitroso compound observed, which was absent […] the phases were mixed, is attributable to the S-nitroso pantetheine derivative.
At the same time, owing to the catalytic action of the traces of copper present, the corresponding nitrosothiol is also formed, and remains sufficiently stable for more than 1 hour at room temperature. Therefore, this formulation allows the rapid formation of nitrogen monoxide in a rapidly diffusible form and, at the same time, the formation of nitrosothiol that is sufficiently stable for the sustained release of nitrogen monoxide over time.

corpus cavernosum tissue = experiment: In-vitro relaxation/contraction of rat corpus cavernosum tissue (force displacement transducer); assay type: cell-based; details: for relaxation of the tissue of the corpora cavernosa pre-constricted with norepinephrine (vasodilatory effect): scalar solutions 10^−s M to 10^−3 M after norepinephrine constriction of about 1.5 mN
Excerpt: In particular, this model is used for planning experiments aimed at checking the vasodilatory action of NO on vascular smooth muscle cells, since the methodology presented by the authors allows samples of corpus cavernosum tissue to be obtained from rats, on which studies of response to various exogenous molecules can be conducted, to detect their relaxation/contraction effects on smooth muscle cells.
We used 20 adult Wistar-type rats weighing between 175 and 200 g; after having sacrificed the rats we obtained corpus cavernosum tissues as described by the methods and placed these in a Krebs solution (in mM: 118 NaCl, 4.7 KCl, 1.2 KH2PO4, 1.2 MgSO4, 1.5 CaCl2, 25 NaHCO3, 11 glucose).
A single sample was taken from each rat.
The excised tissues were then put in 10 mL Krebs solution and held in place by two metal arms to allow assessment of any changes in the forces observed and assessed by the Grass FT03 model (using a force displacement transducer apparatus to assess the muscle tension of tissues, calibrated in mN). The saline solution containing the tissues (Krebs solution) was kept at pH 7.4±0.1 and at 37° C., with oxygenation using a mixture of 95% oxygen and 5% carbon dioxide.

[2] = system: rat model with type 1 diabetes induced by streptozotocin; experiment: In-vivo test of sexual function in diabetic rat models; details: for EL (Ejaculation latency) / IF (Introduction frequency) / IL (Introduction latency) / MF (Mating frequency) / ML (Mating latency) / PEI (Post-ejaculatory interval): diabetic rat
Description: Next we tested the possible beneficial effects of SNO-pantetheine on sexual function in a rat model with type 1 diabetes induced by streptozotocin, which is typically accompanied by deficit of sexual activity.
In short, male Wistar rats were assigned to a cage (45×50×35 cm) covered in glass and lit with red light. Training took place every day after 5 pm for about 30 min, and after 10 minutes of acclimatization a female rat in an oestrogenic phase was introduced into the cage. We then observed the sexual behaviour of diabetic rats vs. the relevant controls by measuring standard parameters (Burnett et al., 1995).

[3] = SNO-pantetheine group, Day 0 (baseline)
[4] = topical SNO-pantetheine, Day 30

time nitrosothiol remains sufficiently stable [1] | Molecule | relaxation of the tissue of the corpora cavernosa pre-constricted with norepinephrine (vasodilatory effect) (corpus cavernosum tissue) | EL (Ejaculation latency) [2, 3] | IF (Introduction frequency) [2, 3] | IL (Introduction latency) [2, 3] | MF (Mating frequency) [2, 3] | ML (Mating latency) [2, 3] | PEI (Post-ejaculatory interval) [2, 3] | EL (Ejaculation latency) [2, 4] | IF (Introduction frequency) [2, 4] | IL (Introduction latency) [2, 4] | MF (Mating frequency) [2, 4] | ML (Mating latency) [2, 4] | PEI (Post-ejaculatory interval) [2, 4] | effect on sexual behaviour in the diabetic rat model ([2]; topical application, vs. all the parameters assessed) | constriction of corpus cavernosum tissue (corpus cavernosum tissue; scalar solutions 10^−8 M to 10^−3 M, Krebs solution pH 7.4, 37° C.)
more than 1 hour | S-nitrosothiol of pantetheine [SNO-pantetheine] | effect of the norepinephrine was cancelled out; also recorded: exhibit the desired vasodilatory effect | 423.2 ± 12.5 s | 11.2 ± 0.9 number | 52.3 ± 3.9 s | 12.0 ± 1.7 number | 42.5 ± 2.9 s | 343.3 ± 10.9 s | 375.8 ± 10.8 s | 14.5 ± 0.8 number | 44.7 ± 4.2 s | 11.2 ± 0.3 number | 34.3 ± 2.5 s | 386.2 ± 14.3 s | able to induce an increase in sexual behaviour | 
 | NC[C@H](O)c1ccc(O)c(O)c1 [norepinephrine, reference compound] |  |  |  |  |  |  |  |  |  |  |  |  |  |  | about 1.5 mN
 | S-nitrosothiol of alpha lipoic acid | behaviour that is very similar to that of the S-nitrosothiol of pantetheine; also recorded: exhibit the desired vasodilatory effect |  |  |  |  |  |  |  |  |  |  |  |  |  | 
